Peptide text beside a SMILES is read from it. * marks the point of attachment. βNA = c1ccc2cc(N*)ccc2c1
How the values were obtained:
K. pneumoniae 13GNB–429 [1] = test: Checkerboard assay with PAβN; format: cell-based, Klebsiella pneumoniae; conditions: for concentration at the marked interaction: resazurin
Experimental: (§1) MICs of NCL259 or NCL265 in the presence of the efflux pump inhibitor, PAβN were determined using a checkerboard assay. […] Briefly, a two-fold serial dilution of each antimicrobial solution was prepared in its appropriate solvent (e.g., DMSO for robenidine analogues and Milli-Q water for PAβN), and 1 μL of each dilution was added from wells 12 to 3 (12.8–0.25 μg/mL for robenidine analogues, and 32–2 μg/mL for PAβN). Thereafter, 89 μL of LB broth was added to each well followed by the addition of 10 μL of bacterial suspension (1–5 × 10^6 CFU/mL) to each well. In this manner, the final concentration of DMSO in each well was 1%. The plate was subsequently incubated at 37 °C for 24 h. The resazurin assay was used for assessment of drug susceptibility of NCL259 and NCL265 (Supplementary Table S1–S6). The same method was also used to test the MICs of NCL259 or NCL265 in the presence of PMB against a range of Gram-negative reference strains (E. coli ATCC 25922, E. coli ATCC 10763, P. aeruginosa PAO1, P. aeruginosa ATCC 27853, A. baumannii ATCC 12457, A. baumannii ATCC 19606, K. pneumoniae ATCC 4352 and K. pneumoniae ATCC 33495). Stock solutions were prepared prior to use (25.6–0.25 mg/mL for robenidine analogues; 12.8–0.25 mg/mL for PMB). The interaction of two antibiotics was calculated as the fractional inhibitory concentration index (FICI) using the following formula:(1) FICI=MICA in combination/MICA alone+MICB in combination/MICB alone where A is NCL259 or NCL265 and B is PAβN or PMB. According to FICI calculations, the interaction between two compounds were interpreted as follows: synergistic (FICI ≤ 0.5); additive or partially synergistic (0.5 < FICI ≤ 1); indifferent (1 < FICI ≤ 4); and antagonistic (FICI > 4), as described previously. The dose reduction index (DRI) was used to describe the difference between the effective doses of NCL259 or NCL265 in combination with PMB or PAβN in comparison to their individual doses, using the following formula:(2) DRI=MICA alone/MICA in combination
(§2) Evaluation of DRI is important clinically because it can allow the dose of a potentially toxic drug to be lowered in combination with another compound without reducing the drug’s efficacy. A DRI higher than 1 is viewed as beneficial.

K. pneumoniae 13GNB–550 [2] = test: Checkerboard assay with PAβN; format: cell-based, Klebsiella pneumoniae; conditions: for concentration at the marked interaction: resazurin
Experimental: as §1, §2

K. oxytoca 13GNB–582 [3] = test: Checkerboard assay with PAβN; format: cell-based; conditions: for concentration at the marked interaction: resazurin
Experimental: as §1, §2

K. oxytoca 13GNB–582 [4] = test: MIC, broth micro-dilution; format: cell-based; conditions: Klebsiella oxytoca, read-out: MIC, Single Drug
Experimental: (§3) MICs for NCL259 and NCL265 (serial two-fold dilutions commencing at 256 µg/mL) were determined (in duplicate) in round bottom 96–well microtitre trays (Sarstedt 82.1582.001), using the broth micro-dilution method recommended by the Clinical and Laboratory Standards Institute (CLSI). We have shown previously that robenidine can chelate calcium ions from cation-adjusted Mueller-Hinton broth, which causes the loss of activity of robenidine. Therefore, LB broth was used in this study. Additionally, considering the low solubility of robenidine and its analogues in aqueous solutions, two-fold serial dilutions of stock solutions of these compounds were prepared in 100% DMSO [21]. The MIC for ampicillin against each isolate was determined for each test to serve as an internal quality control. The MICs of isolates were determined by visual reading and using an EnSpire Multimode Plate Reader 2300 at A600nm.
as §1

K. pneumoniae 13GNB–429 [5] = test: MIC, broth micro-dilution; format: cell-based; conditions: Klebsiella pneumoniae, read-out: MIC, Single Drug
Experimental: as §3, §1

K. pneumoniae 13GNB–550 [6] = test: MIC, broth micro-dilution; format: cell-based; conditions: Klebsiella pneumoniae, read-out: MIC, Single Drug
Experimental: as §3, §1

E. coli BW 25113 (∆AcrB) = test: MIC, efflux-pump mutant; format: cell-based, Escherichia coli; conditions: Escherichia coli, read-out: MIC Values
Experimental: (§4) A variety of Gram-negative reference strains (E. coli ATCC 25922, E. coli ATCC 10763, P. aeruginosa PAO1, P. aeruginosa ATCC 27853, A. baumannii ATCC 12457, A. baumannii ATCC 19606, K. pneumoniae ATCC 4352 and K. pneumoniae ATCC 33495) were used for initial screening and combination testing with PMB. The organisms were speciated using biochemical testing and MALDI-TOF mass spectrometry (Bruker, Preston, VIC, Australia). Activity testing of NCL259 and NCL265 was also carried out on 51 extraintestinal clinical E. coli isolates from companion animals, and 83 porcine and bovine enterotoxigenic E. coli (ETEC) isolates from the Australian Centre for Antimicrobial Resistance Ecology collection. E. coli wild-type (BW 25113) and its mutant BW 25113∆AcrB, in which the inner membrane component AcrB of the tripartite multidrug efflux system AcrA/AcrB/TolC has been deleted, were obtained from the bacterial collection held at Health and Biomedical Innovation, Clinical and Health Sciences, The University of South Australia. All isolates were cultured on sheep blood agar (SBA) plates at 37 °C for 18 h before being subcultured into Luria Bertaini (LB) (Oxoid, Scoresby, VIC, Australia) broth and grown to A600nm = 0.5 (equivalent to approx. 1.5 × 10^8 colony-forming units (CFU)/mL).
as §3

[7] = system: Wild-type (E. coli BW 25113); test: MIC, efflux-pump wild-type; format: cell-based; conditions: Escherichia coli; Wild-type (E. coli BW 25113); read-out: MIC Values
Experimental: as §4
as §3, with “Additionally, considering the low solubility of robenidine and its analogues in aqueous solutions, two-fold serial dilutions of stock solutions of these compounds were prepared in 100% DMSO [21].” left out

## NC(N)=NCCC[C@H](NC(=O)[C@@H](N)Cc1ccccc1)C(=O)Nc1ccc2ccccc2c1 [PAβN, phenylalanine-arginine-beta-naphthylamide, reference compound] (H-Phe-Arg-βNA)
K. pneumoniae 13GNB–429 [1]; K. pneumoniae 13GNB–429
  DRI PAβN:NCL259: 4
  DRI PAβN:NCL265: 2
K. pneumoniae 13GNB–429 [1]; K. pneumoniae 13GNB–429, PAβN + NCL259
  MIC, Combination: 16 µg/mL
K. pneumoniae 13GNB–429 [1]; K. pneumoniae 13GNB–429, PAβN + NCL265
  MIC, Combination: 32 µg/mL
K. pneumoniae 13GNB–429 [1]; Table S1, NCL259 + PAβN, replicate 1
  concentration at the marked interaction: 8 µg/mL
K. pneumoniae 13GNB–429 [1]; Table S1, NCL259 + PAβN, replicate 2
  concentration at the marked interaction: 8 µg/mL
K. pneumoniae 13GNB–429 [1]; Table S4, NCL265 + PAβN, replicate 1
  concentration at the marked interaction: 8 µg/mL
K. pneumoniae 13GNB–429 [1]; Table S4, NCL265 + PAβN, replicate 2
  concentration at the marked interaction: 4 µg/mL
K. pneumoniae 13GNB–550 [2]; K. pneumoniae 13GNB–550
  DRI PAβN:NCL259: 2
  DRI PAβN:NCL265: 2
K. pneumoniae 13GNB–550 [2]; K. pneumoniae 13GNB–550, PAβN + NCL259
  MIC, Combination: 32 µg/mL
K. pneumoniae 13GNB–550 [2]; K. pneumoniae 13GNB–550, PAβN + NCL265
  MIC, Combination: 32 µg/mL
K. pneumoniae 13GNB–550 [2]; Table S2, NCL259 + PAβN, replicate 1
  concentration at the marked interaction: 16 µg/mL
K. pneumoniae 13GNB–550 [2]; Table S2, NCL259 + PAβN, replicate 2
  concentration at the marked interaction: 8 µg/mL
K. pneumoniae 13GNB–550 [2]; Table S5, NCL265 + PAβN, replicate 1
  concentration at the marked interaction: 8 µg/mL
K. pneumoniae 13GNB–550 [2]; Table S5, NCL265 + PAβN, replicate 2
  concentration at the marked interaction: 8 µg/mL
K. oxytoca 13GNB–582 [3]; K. oxytoca 13GNB–582
  DRI PAβN:NCL259: 4
  DRI PAβN:NCL265: 2
K. oxytoca 13GNB–582 [3]; K. oxytoca 13GNB–582, PAβN + NCL259
  MIC, Combination: 16 µg/mL
K. oxytoca 13GNB–582 [3]; K. oxytoca 13GNB–582, PAβN + NCL265
  MIC, Combination: 32 µg/mL
K. oxytoca 13GNB–582 [3]; Table S3, NCL259 + PAβN, replicate 1
  concentration at the marked interaction: 8 µg/mL
K. oxytoca 13GNB–582 [3]; Table S3, NCL259 + PAβN, replicate 2
  concentration at the marked interaction: 8 µg/mL
K. oxytoca 13GNB–582 [3]; Table S6, NCL265 + PAβN, replicate 1
  concentration at the marked interaction: 8 µg/mL
K. oxytoca 13GNB–582 [3]; Table S6, NCL265 + PAβN, replicate 2
  concentration at the marked interaction: 8 µg/mL
K. oxytoca 13GNB–582 [4]
  MIC: > 32 µg/mL
K. pneumoniae 13GNB–429 [5]
  MIC: > 32 µg/mL
K. pneumoniae 13GNB–550 [6]
  MIC: > 32 µg/mL

## CC[C@H]1OC(=O)[C@H](C)[C@@H](O[C@H]2C[C@@](C)(OC)[C@@H](O)[C@H](C)O2)[C@H](C)[C@@H](O[C@@H]2O[C@H](C)C[C@H](N(C)C)[C@H]2O)[C@](C)(O)C[C@@H](C)C(=O)[C@H](C)[C@@H](O)[C@]1(C)O [Erythromycin, reference compound]
E. coli BW 25113 (∆AcrB)
  MIC: 2 µg/mL
[7]
  MIC: > 128 µg/mL
